PubChem BioAssay (NCI)
Where “and” joins values, the source holds several entries; their conditions need not be identical. Identical values can stand only once.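 A five-concentration, 48-hour dose response in 96-well plates underlies each endpoint, interpolated linearly between surrounding concentrations. TGI is the concentration that stops growth completely.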

What was measured:
Assay in all cases: NCI-60 cell line screen, 48 h
[1] = tested on: ACHN renal
[2] = tested on: CAKI-1 renal
[3] = tested on: HCT-116 colon
[4] = tested on: HT29 colon
[5] = tested on: IGROV1 ovarian
[6] = tested on: NCI-H226 lung
[7] = tested on: NCI-H23 lung
[8] = tested on: NCI-H522 lung
[9] = tested on: RPMI-8226 leukemia
[10] = tested on: SF-295 CNS
[11] = tested on: SK-MEL-2 melanoma
[12] = tested on: SN12C renal
[13] = tested on: SR leukemia
[14] = tested on: HCT-15 colon
[15] = tested on: HOP-92 NSCLC
[16] = tested on: LOX IMVI melanoma
[17] = tested on: SNB-19 CNS
[18] = tested on: HL-60(TB) leukemia

Structure (SMILES) | TGI [1] [µM] | TGI [2] [µM] | TGI [3] [µM] | TGI [4] [µM] | TGI [5] [µM] | TGI [6] | TGI [7] [µM] | TGI [8] [µM] | TGI [9] [µM] | TGI [10] [µM] | TGI [11] [µM] | TGI [12] [µM] | TGI [13] [µM] | TGI [14] [µM] | TGI [15] [µM] | TGI [16] [µM] | TGI [17] [µM] | TGI [18] [µM]
COc1ccc(/C=C\c2cc(OC)c(OC)c(OC)c2)cc1 | > 100 | 43.4 | > 100 | 13.6 | > 100 | 0.222 µM and 0.0693 µM | 0.0118 | 0.00151 | > 100 | 0.000719 | > 100 | > 100 | 78.7 | – | – | – | – | –
CCCNCCCCC(NC(C)=O)C(=O)NCc1ccccc1 (stereo not given) | > 100 | > 100 | > 100 | > 100 | > 100 | > 100 µM | > 100 | > 100 | > 100 | > 100 | > 100 | > 100 | – | > 100 | > 100 | > 100 | > 100 | –
COc1ccc(C2Cc3cc(OC)c(OC)c(OC)c3C2)cc1 (stereo not given) | > 100 | > 100 | > 100 | 79.6 | > 100 | > 100 µM | > 100 | – | 98.9 | > 100 | > 100 | > 100 | – | > 100 | – | > 100 | > 100 | –
CN1CCc2ccccc2C(C(=O)c2ccc3c(c2)OCO3)C1=O (stereo not given) | > 100 | > 100 | > 100 | > 100 | > 100 | > 100 µM | > 100 | > 100 | > 100 | – | > 100 | > 100 | – | > 100 | > 100 | > 100 | > 100 | > 100
O=C(/C=C/c1ccccc1O)c1ccccc1Cl | > 100 | > 100 | > 100 | > 100 | > 100 | > 100 µM | > 100 | 80.4 | – | > 100 | > 100 | > 100 | 76.5 | > 100 | > 100 | 73.6 | > 100 | 63.8
CCCCCCCCC(O)c1ccc(/C=C\C(O)CCCC(=O)O)s1 (stereo not given) | > 100 | – | > 100 | > 100 | > 100 | > 100 µM | > 100 | > 100 | > 100 | > 100 | > 100 | > 100 | > 100 | > 100 | > 100 | > 100 | > 100 | > 100
Cc1ccc(-c2cc(-c3ccccc3)c(C#N)c(=O)[nH]2)cc1 | > 100 | – | > 100 | > 100 | > 100 | > 100 µM | > 100 | > 100 | > 100 | > 100 | – | > 100 | > 100 | > 100 | > 100 | > 100 | > 100 | > 100
COc1cc([C@@H]2c3cc4c(cc3[C@@H](NCc3cccc(C#N)c3)C3COC(=O)[C@@H]32)OCO4)cc(OC)c1O (stereo not given in full) | 1.58 | 20.8 | 21.4 | 5.51 | 15.2 | 2.4 µM | 1.76 | 3.56 | 7.33 | 7 | 8.78 | 2.93 | – | 3.17 | 9.83 | 8.36 | 7.74 | 1.51
O=[N+]([O-])c1cccc(Nc2nc(Cl)nc(Cl)n2)c1 | > 100 | > 100 | > 100 | > 100 | – | > 100 µM | > 100 | > 100 | > 100 | > 100 | > 100 | > 100 | > 100 | > 100 | – | > 100 | > 100 | –
COC(=O)/C=C(\C)CCC1SC1(C)C (stereo not given) | > 100 | > 100 | > 100 | > 100 | > 100 | > 100 µM | > 100 | > 100 | > 100 | > 100 | > 100 | > 100 | – | > 100 | – | > 100 | > 100 | > 100
CCOC(=O)CCC(NC(=O)c1ccc(NC(OC)c2nc3cc(C(F)(F)F)ccc3nc2-c2ccccc2)cc1)C(=O)OCC (stereo not given) | 30.2 | 31.1 | 9.35 | 22.1 | 33.3 | 35 µM | 31.5 | 25.6 | > 74.1 | 31.2 | 33.1 | 28.2 | > 100 | 34 | 30.3 | 23.4 | 27.5 | –
CN(C)CCN1CCc2c([nH]c3ccccc23)C1c1cccnc1 (stereo not given) | 50.9 | > 100 | > 100 | > 100 | > 100 | – | > 100 | > 100 | > 100 | > 100 | – | > 100 | > 100 | > 100 | > 100 | – | > 100 | > 100
O=C(O)CSc1n[nH]c(-c2ccco2)n1 | > 100 | > 100 | > 100 | > 100 | > 100 | > 100 µM | > 100 | > 100 | > 100 | > 100 | > 100 | > 100 | – | – | > 100 | > 100 | > 100 | > 100
